In US12251373B2, “Compounds and methods of treating retinal degeneration” (CASE WESTERN RESERVE UNIVERSITY, priority 2017, dated 2025):

What was measured:
[1] = molecular target: T1, mouse P23H opsin (Mus musculus, UniProt P15409, P23H); test: Immunostain and image-based high-content analysis of P23H mutant opsin in NIH3T3 cells; assay type: cell-based; conditions: for effect on cell number: NIH3T3 cells, YC-001 up to 40 μM, 9-cis-retinal higher than 10 μM; for P23H opsin on the plasma membrane: dose-dependent, FIG. 2; for Immunostaining HCS MEM-Total ratio Max (fit) / EC50: ratio of P23H rod opsin fluorescence on plasma membrane to whole cell; for EC50: 1440 min, read-out: Immunostaining HCS MEM-Total ratio EC50
T1 construct: expressed in transfected cells
Source text: Three NIH3T3 stable cell lines, NIH3T3-(WT-opsin/GFP), NIH3T3-(P23H-opsin/GFP), and NIH3T3-(GFP) were previously generated which stably express mouse WT opsin and GFP; P23H opsin and GFP; and only GFP, respectively. GFP is expressed separately from opsin in these cell lines. NIH3T3 cells were from ATCC. DNA constructs for generating these stable cell lines were confirmed by Sanger sequencing. Expression of GFP was confirmed by green fluorescence imaging, and expression of P23H and WT opsin were confirmed by immunoblots.
To characterize the effect of active compounds on the localization of P23H mutant opsin in mammalian cells, an image-based assay was used with cells immunostained for WT or P23H mutant opsin protein. Briefly, NIH3T3-(P23H-opsin/GFP) or NIH3T3-(WT-opsin/GFP) cells were seeded at 5,000 cells per well in a 384-well cell-carrier plate (PerkinElmer) and incubated at 37° C. with 5% CO2 for 2 h. Cells were treated with compounds as described for the β-Gal fragment complementation assay and incubated in assay medium for 24 h. The assay medium then was aspirated, and cells were fixed with 4% paraformaldehyde at 20 μL per well for 20 min at RT. Cells were immunostained in one of two ways: cell membranes were either permeabilized with 0.1% Triton X-100 for 15 min or left intact and then were incubated with 10% goat serum (Life Technologies). To detect opsin on the cell plasma membrane only, intact cells were immunostained with 20 μL per well of 20 μg mL^−1 B6-30 anti-rhodopsin antibody that recognizes the N-terminal epitope on the extracellular side of rhodopsin. To detect total opsin, cells were permeabilized with Triton X-100 and immunostained with 50 μg mL^−1 1D4 anti-rhodopsin antibody specific for the C-terminal epitope on the intracellular side of rhodopsin. Opsin immunostaining was visualized by incubating cells with 5 μg mL^−1 Cy3-conjugated goat anti-mouse IgG antibody. Three washes with phosphate-buffered saline (PBS: 10 mM Na2HPO4, 1.8 mM KH2PO4, pH 7.4, 137 mM NaCl, and 2.7 mM KCl) were performed between each step of incubation with antibody. In the last wash with PBS, DAPI was added to each well at 300 nM. Fluorescence images were obtained with the Operetta High Content Imaging System (PerkinElmer) using a 20× long objective. Five fields were taken of each well for cell images using three channels for fluorescence: GFP (100 ms), Cy3 (300 ms), and DAPI (50 ms). Images were analyzed with Acapella software from the Columbus data storage and analysis system (PerkinElmer). For cells immunostained with opsin on the non-permeabilized cell membrane only, an average of total fluorescence intensity of Cy3 per cell was used to quantify opsin in each well of the 384-well plate. For cells immunostained with opsin in permeabilized whole cells, an average ratio of Cy3 intensity on the cell plasma membrane (PM) to that of the entire cell (opsin ratio PM-to-total) was calculated for each well of a 384-well plate to quantify opsin transport to the plasma membrane. The plasma membrane was defined within ±5% of the cell border.

[2] = molecular target: T2, P23H opsin (Mus musculus, UniProt P15409, P23H); test: Immunoblot of P23H opsin glycosylation in NIH3T3 cells; assay type: cell-based; parameters: key to Improved glycosylation: n = no; y = yes; conditions: for Improved glycosylation: P23H opsin; for glycosylation of P23H opsin (in words): immunoblot, PNGaseF, FIG. 3A-D
T2 construct: expressed in transfected cells
Experimental: NIH3T3-(P23H-opsin/GFP) or NIH3T3-(WT-opsin/GFP) cells were seeded in a 48-well plate (Corning Costar) at 3.2×10^5 cells per well and incubated at 37° C. with 5% CO2 for 2 h. One hundred-μL of assay medium containing a compound at 5× its final concentration was added to each well. The plate was gently shaken for 5 s before further incubation at 37° C. with 5% CO2 for 24 h. The assay medium then was aspirated, and cells were lysed with 100 μL per well PBS containing 0.1% Triton X-100 and complete protease inhibitor cocktail (Roche, Basel, Switzerland) followed by sonication for 3 s. Protein concentrations were determined with the Bradford assay. For PNGase F catalyzed deglycosylation, 3 μL of PNGase F (1,500 U, NEB) was added to the cell lysate and the mixture was incubated at room temperature for 1 h before immunoblotting. For NIH3T3-(P23H-opsin/GFP) cells, 15 μg of total protein were loaded per well onto an SDS-polyacrylamide gel; whereas for NIH3T3-(WT-opsin/GFP) cells, 10 μg of total protein was loaded per well. Opsin protein was immunostained with 0.2 μg mL^−1 horseradish peroxidase-conjugated 1D4 anti-rhodopsin antibody. Band intensities were measured with ImageJ software (http://imagej.nih.gov/ij/; National the Institutes of Health, Bethesda, MD, USA) and normalized to a glyceraldehyde 3-phosphate dehydrogenase (GAPDH) loading control.

Row | Compound | ratio of P23H opsin stain in the ER region to total P23H opsin staining ([1]; FIG. 2M,N) | effect on cell number [1] | P23H opsin on the plasma membrane [1] | Immunostaining HCS MEM-Total ratio Max (fit) [1] | EC50 [1] [nM] | Improved glycosylation [2] | glycosylation of P23H opsin (in words) [2]
1 | O=C1OCC(c2ccc(Cl)s2)=C1c1cccs1 [YC-001] | decreased | did not affect cell number | increased | 0.030 | 2750 | y | improvement of glycosylation
2 | O=C(CCCCCN1C(=O)c2cccc3cccc(c23)C1=O)NO [Scriptaid, reference compound] | – | – | – | 0.070 | 380 | n | does not affect the glycosylation
3 | CC1=C(/C=C/C(C)=C\C=C\C(C)=C\C=O)C(C)(C)CCC1 [9-cis-retinal, reference compound] | – | killed most cells | increased | 0.019 | 377 | y | improvement of glycosylation
